Experimental data published in patent US20060062753A1, “Polymeric quaternary ammonium salts useful as corrosion inhibitors and biocides” (priority 2004, published 2006).

Key:
[1] = tested on: planktonic sulfate reducing bacteria (SRB); assay: Biocide test API RP 38, sulfate reducing bacteria; format: cell-based; settings: 4 hours contact at 37° C., growth monitored 15 days
Method: (§1) The effectiveness of the polymeric quaternary ammonium salts as a biocide was tested using the method shown in the API Recommended Practice for Biological Analysis of Subsurface Injection Waters, API RP 38, March, 1982, which is hereby fully incorporated by reference. The effectiveness of the salts as a biocide was tested using planktonic sulfate reducing bacteria (SRB), Aerobic Acid Producing Bacteria (AAPB) and Anaerobic Acid Producing (AnAP) Bacteria.
(§2) The desired concentrations of the polymeric quaternary ammonium salt biocide were added to clean sterilized bottles. Two bottles contained no biocides and served as controls. Under a N2 blanket, 10 mL of actively growing bacterial culture (24 hours old) was added to each of the bottles, and a 1 mL sample was taken and serially diluted into six bottles. The solutions were mixed well and the bottles were placed in an incubator at 37° C. for 4 hours. At the end of this period, 1 mL samples from each of the treated bottles were taken and serially diluted into 3 bottles. Samples from the control bottles were serially diluted into six bottles. All bottles were then placed in an incubator at 37° C. and bacterial growth was monitored for 15 days.

[2] = tested on: Anaerobic Acid Producing (AnAP) Bacteria; assay: Biocide test API RP 38, anaerobic acid producing bacteria; format: cell-based; settings: 4 hours contact at 37° C., growth monitored 15 days
Method: as §1, §2

[3] = tested on: Aerobic Acid Producing Bacteria (AAPB); assay: Biocide test API RP 38, aerobic acid producing bacteria; format: cell-based; settings: 4 hours contact at 37° C., growth monitored 15 days
Method: as §1, §2

[4] = Standard testing procedures for determining biodegradability
From the text: The present invention provides compositions comprising polymeric quaternary ammonium salts and methods of their use as a corrosion inhibitor and/or biocide. The polymeric quaternary ammonium salts described herein are highly biodegradable, thereby making these compositions highly desirable for use in corrosion systems that require careful consideration concerning environmental impact, such as on offshore drilling platforms. […] For purposes of comparison, sodium benzoate was about 85.5% biodegraded after 7 days, about 95% biodegraded after 14 days and 100% biodegraded after 28 days.

Row | SMILES | Bacterial cells/ml, sulfate reducing bacteria ([1]; dosage 31.3 ppm) | Bacterial cells/ml, sulfate reducing bacteria ([1]; dosage 62.5 ppm) | Bacterial cells/ml, Anaerobic Acid Producing (AnAP) Bacteria ([2]; dosage 31.3 ppm) | Bacterial cells/ml, Anaerobic Acid Producing (AnAP) Bacteria ([2]; dosage 62.5 ppm) | Bacterial cells/ml, Anaerobic Acid Producing (AnAP) Bacteria ([2]; dosage 125 ppm) | Bacterial cells/ml, Aerobic Acid Producing Bacteria (AAP) ([3]; dosage 100 ppm) | Bacterial cells/ml, Aerobic Acid Producing Bacteria (AAP) ([3]; dosage 200 ppm) | Bacterial cells/ml, Aerobic Acid Producing Bacteria (AAP) ([3]; dosage 375 ppm) | Bacterial cells/ml, Aerobic Acid Producing Bacteria (AAP) ([3]; dosage 500 ppm) | biodegraded ([4]; after 7 days) | biodegraded ([4]; after 14 days) | biodegraded ([4]; after 28 days) [%]
1 | O=CCCCC=O [Glutaraldehyde] | 10^1 cells/ml | 0^ cells/ml | 10^2 cells/ml | ≧10^3 cells/ml | ≧10^3 cells/ml | ≧10^3 cells/ml | ≧10^3 cells/ml | 10^2 cells/ml | 10^1 cells/ml | – | – | –
2 | O=C([O-])c1ccccc1.[Na+] [sodium benzoate] | – | – | – | – | – | – | – | – | – | about 85.5% | about 95% | 100
